According to ChEMBL document CHEMBL1201862, “PubChem BioAssay data set” (2004):
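A five-concentration, 48-hour dose response in 96-well plates underlies each endpoint, interpolated linearly between surrounding concentrations. GI50 = concentration required for 50% inhibition of growth.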 The source made the active and inactive calls. No stated cut-off is given here; in the data, active = GI50 up to about 1.1 µM and inactive = higher.

Columns and labels:
Test in all cases: growth of human tumour cells (NCI), 48 h
[1] = system: A549
[2] = system: BT-549
[3] = system: CAKI-1
[4] = system: COLO 205
[5] = system: HCC 2998
[6] = system: HCT-15
[7] = system: HT-29
[8] = system: K562
[9] = system: LOX IMVI
[10] = system: MCF7
[11] = system: MDA-N
[12] = system: MOLT-4
[13] = system: OVCAR-3
[14] = system: OVCAR-4
[15] = system: SK-MEL-2
[16] = system: SNB-19
[17] = system: SNB-75
[18] = system: TK-10
[19] = system: U-251
[20] = system: UACC-62

| SMILES | GI50 [1] | GI50 [2] | GI50 [3] | GI50 [4] | GI50 [5] | GI50 [6] [µM] | GI50 [7] | GI50 [8] | GI50 [9] | GI50 [10] | GI50 [11] | GI50 [12] | GI50 [13] | GI50 [14] | GI50 [15] | GI50 [16] | GI50 [17] | GI50 [18] | GI50 [19] | GI50 [20] |
| --- | --- | --- | --- | --- | --- | --- | --- | --- | --- | --- | --- | --- | --- | --- | --- | --- | --- | --- | --- | --- |
| COC(=O)c1c2c(cc3c1CC1(C3)Cc3ccc4c(c3C1=O)CCC4)CCC2 (stereo not given) | 4.88 µM (inactive) | 2.52 µM (inactive) | 2.26 µM (inactive) | 2.37 µM (inactive) | 6.52 µM (inactive) | 3.58 | 2.58 µM (inactive) | 2.2 µM (inactive) | 3.9 µM (inactive) | 2.45 µM (inactive) | 0.608 µM (active) | 4.41 µM (inactive) | 1.94 µM (inactive) | 10.2 µM (inactive) | 3.98 µM (inactive) | 4.12 µM (inactive) | 4.33 µM (inactive) | 8.49 µM (inactive) | 3.33 µM (inactive) | 2.26 µM (inactive) |
| CC(C)C(Cl)CCC(C)(Cl)C(=O)CBr (stereo not given) | 20.8 µM (inactive) | 8.55 µM (inactive) | 6.1 µM (inactive) | 3.4 µM (inactive) | 18.5 µM (inactive) | 2.99 | 4.36 µM (inactive) | 1.02 µM (active) | 0.776 µM (active) | 2.37 µM (inactive) | 1.95 µM (inactive) | 0.418 µM (active) | 6.18 µM (inactive) | 4.6 µM (inactive) | 8.32 µM (inactive) | 29.6 µM (inactive) | 16.1 µM (inactive) | 5.83 µM (inactive) | 12.7 µM (inactive) | 2.77 µM (inactive) |
| COC(=O)C12C3C4(C(=O)OC)C1C1(C(=O)OC)C2C3(C(=O)OC)C41C(=O)N(C(C)C)C(C)C (stereo not given) | > 100 µM (inactive) | > 100 µM (inactive) | > 100 µM (inactive) | > 100 µM (inactive) | > 100 µM (inactive) | > 100 | > 100 µM (inactive) | > 100 µM (inactive) | > 100 µM (inactive) | > 100 µM (inactive) | > 100 µM (inactive) | > 100 µM (inactive) | > 100 µM (inactive) | > 100 µM (inactive) | > 100 µM (inactive) | > 100 µM (inactive) | > 100 µM (inactive) | > 100 µM (inactive) | > 100 µM (inactive) | > 100 µM (inactive) |
| CC1=C[C@@H](C)C[C@]2(C)CC[C@H](O2)[C@]23CC[C@](C(=O)O)(C[C@H](O2)[C@@H]2O[C@@](C)(CC2=O)[C@@H](O)[C@H]2CC[C@@]4(CCC[C@@H](O4)[C@H](C)C(=O)O[C@H]4C[C@H]([C@]5(O)OCC[C@H](C)[C@@H]5O)O[C@H]4C=C1)O2)O3 | > 10 µM (inactive) | > 7.83 µM (inactive) | > 10 µM (inactive) | > 8.55 µM (inactive) | > 10 µM (inactive) | > 10 | > 10 µM (inactive) | > 10 µM (inactive) | > 6.92 µM (inactive) | > 10 µM (inactive) | > 8.95 µM (inactive) | > 10 µM (inactive) | > 10 µM (inactive) | > 10 µM (inactive) | > 6.85 µM (inactive) | > 10 µM (inactive) | 3.5 µM (inactive) | > 7.62 µM (inactive) | > 10 µM (inactive) | > 9.02 µM (inactive) |
